Test results published in patent US20250213644A1, “COMPOSITIONS AND METHODS FOR TREATMENT OF BONE-RELATED DISEASE OR DISORDER” (priority 2021, published 2025).

Assays:
newly formed bone = details: rats, after 6 to 8 weeks of treatment; cited from earlier work
human osteoblasts = experiment: Human osteoblast proliferation assay with or without SR144528; details: with CB2-selective antagonist SR144528
[1] = test system: New-born mouse calvarial osteoblasts; experiment: Osteoblast proliferation assay (cell counts), WT and CB2−/− mouse-derived cultures
OVX-induced bone loss = experiment: Rescue of OVX-induced bone loss, μCT of femora; assay type: in vivo, mouse
age-related bone loss = experiment: Prevention of age-related bone loss in male mice, μCT; assay type: in vivo, mouse; details: male mice treated from 3 to 6 months of age
[2] = test system: Ti particle-induced osteolysis; experiment: Calvarial osteolysis model, Ti particle-induced osteolysis, μCT; assay type: in vivo, mouse; details: fibrin membranes with Ti particles loaded with 10^−11M 5aa-OGP on mice calvaria; 4 weeks post-op
Source text: FIGS. 5A-5C show the effect of topically administered 5aa-OGP on Ti particle-induced osteolysis in vivo: Fibrin membranes including titanium particles derived from sand-blasted Ti implants, with 5aa-OGP (TiP+5aa-OGP) or with saline (TiP) were implanted onto mice calvaria. Membranes with no TiP were inserted in the control group. Mice were sacrificed 4 weeks post-op. and subjected to CT analysis. FIG. 5A—Pit Resorption Volume over total volume (PR.V/TV), FIG. 5B—Bone volume in the region of interest, chiefly representing the calvarial thickness), and FIG. 5C—Representative CT images of the calvaria. Data are expressed as mean±SD (n=4). *p<0.05 vs. Titanium.
Calvarial Osteolysis Model. To test the direct effect of Ti particles on inflammation-induced osteolysis in vivo, a mouse calvaria model and μCT analysis specifically designed in our laboratory was used. […]
μCT analysis—All specimens were scanned and analyzed using a μCT system (CT 50, Scanco Medical AG, Switzerland). […]
A custom-made algorithm based on Image-Processing Language (IPL, Scanco Medical) was developed to isolate the resorption pits, defined as unmineralized pits that were […] deep on the bone surface. The measured resorption volume was limited to a […] depth because beyond that, the resorption pit was connected to the internal diploe. […]

CB2 = CB2 (Homo sapiens, UniProt P34972); details: increasing concentrations of 5aa-OGP; CHO-CB2-derived membranes
[3] = mouse-derived osteoblast cultures, 48-hour incubation
[4] = WT OVX mice, 10 ng/day s.c. for 6 weeks

Sequence of CB2 (P34972 whole entry): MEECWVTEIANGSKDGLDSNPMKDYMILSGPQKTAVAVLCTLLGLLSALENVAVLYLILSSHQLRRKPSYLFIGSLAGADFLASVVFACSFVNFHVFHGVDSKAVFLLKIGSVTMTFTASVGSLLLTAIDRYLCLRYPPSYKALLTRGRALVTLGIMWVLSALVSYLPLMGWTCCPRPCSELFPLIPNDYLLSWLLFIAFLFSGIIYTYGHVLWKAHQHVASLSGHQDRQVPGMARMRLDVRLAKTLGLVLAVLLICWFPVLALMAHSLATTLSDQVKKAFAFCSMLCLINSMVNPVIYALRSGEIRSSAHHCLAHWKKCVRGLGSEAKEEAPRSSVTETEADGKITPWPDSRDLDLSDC

| Compound | Quality and biomechanical properties (e.g. bone strength) of the newly formed bone (newly formed bone) | Proliferative effect in human osteoblasts (human osteoblasts) | Osteoblastic proliferative activity [1, 3] | Any of the measured bone parameters (OVX-induced bone loss; OVX CB2−/− animals, 10 ng/day s.c. for 6 weeks) | Cortical bone parameters (OVX-induced bone loss; [4]) | Trabecular number (Tb.N) (OVX-induced bone loss; [4]) | Trabecular thickness (Tb.Th) (OVX-induced bone loss; [4]) | Trabecular volumetric bone mineral density (vBMD) (OVX-induced bone loss; [4]) | Trabecular bone volume fraction (BV/TV), change vs. OVX, VEH-treated mice (OVX-induced bone loss; WT OVX mice, 10 ng/day s.c. once a day for 6 weeks, starting 6 weeks post-OVX, p=0.035) | Trabecular connectivity density (age-related bone loss) | Trabecular number (age-related bone loss) | Trabecular thickness (age-related bone loss) | Bone volume in the calvaria (region of interest) [2] | Ti particle-induced osteolysis (Pit Resorption Volume over total volume, PR.V/TV) [2] | Osteoblastic proliferative activity ([1]; CB2−/−-derived murine osteoblasts (genetic ablation of CB2)) | Displacement of tritiated CP55,940 (CB2) |
| --- | --- | --- | --- | --- | --- | --- | --- | --- | --- | --- | --- | --- | --- | --- | --- | --- |
| C=C(C)[C@@H]1CCC(C)=C[C@H]1c1c(O)cc(CCCCC)cc1O [CBD, Cannabidiol] | enhanced |  |  |  |  |  |  |  |  |  |  |  |  |  |  |  |
| CCCCCCC(C)(C)c1cc(OC)c(C2=C[C@H]3CC[C@]2(CO)C3(C)C)c(OC)c1 [HU-910, reference compound] |  | abrogated | nearly an identical dose response relationship |  |  |  |  |  |  |  |  |  |  |  |  |  |
| YGFGG (listed as Homo sp.) [5aa-OGP] |  | abrogated | nearly an identical dose response relationship | no effect | did not affect | significant increases | significant increases | significant increases | +45.9% | significantly increased | significantly increased | significantly increased | increased bone volume | completely prevented this bone loss | completely abrogated | did not displace CP55,940 |
